In paper PMC7665585, “Antidepressive effect of an inward rectifier K^+ channel blocker peptide, tertiapin-RQ” (PLoS ONE, 2020):
Read-outs that look alike come from different tables or passages of the source. Bridge positions count the residues as written; N and C are the ends. Peptide text beside a SMILES is read from it.

Assays:
Male ICR mice [1] = test: Elevated plus-maze (EPM); assay type: in vivo, mouse; conditions: i.c.v., 5 min
Procedure: (§1) We performed mouse behavioral experiments in accordance with our previous study. Male ICR mice (n = 199 in total) aged 5 weeks old were purchased from Shimizu Laboratory Supplies (Kyoto, Japan) and maintained in an animal facility for 7–12 days. They had free access to food and water and were kept in a 12-h light/dark cycle (08:00–20:00). Experiments were carried out between 11:00 and 17:00 in a quiet and air-conditioned experimental room, to which mice were habituated for 30–60 min before each experiment. Animal experiments were performed in accordance with the guidelines of the Physiological Society of Japan and were approved by the Committee for Animal Experiments of Kurashiki University of Science and the Arts. Peptides were dissolved in phosphate-buffered saline (PBS). Peptides were injected intracerebroventricularly (i.c.v.) 30 min before behavioral tests (typically 5 μL/mouse), according to a previous study. The mouse was placed into an anesthetizing jar, to which isoflurane (0.2 mL) was added immediately before. […]
The elevated plus maze (EPM) apparatus consisted of four arms set in a cross pattern from a neutral central square (6 × 6 cm). […] The total number of entries to open arms and time spent in the open arms was measured. […]

rat ROMK = target: T1, rat ROMK (Rattus norvegicus, UniProt P35560); test: Whole-cell patch-clamp of ROMK currents in 208–4 cells; assay type: cell-based; conditions: for inhibition at 1 µM: blockade at 1 μM estimated from fitted Hill curve (four parameters), n = 3–6, read-out: Activity (ROMK channel blocking activity, percentage of blockade at 1 μM); for IC50: 25°C
T1 construct: expressed in transfected cells; host or cells: 293T cell line 208-4 (lentiviral transduction, GFP coexpressed)
T1 sequence (P35560 1-391): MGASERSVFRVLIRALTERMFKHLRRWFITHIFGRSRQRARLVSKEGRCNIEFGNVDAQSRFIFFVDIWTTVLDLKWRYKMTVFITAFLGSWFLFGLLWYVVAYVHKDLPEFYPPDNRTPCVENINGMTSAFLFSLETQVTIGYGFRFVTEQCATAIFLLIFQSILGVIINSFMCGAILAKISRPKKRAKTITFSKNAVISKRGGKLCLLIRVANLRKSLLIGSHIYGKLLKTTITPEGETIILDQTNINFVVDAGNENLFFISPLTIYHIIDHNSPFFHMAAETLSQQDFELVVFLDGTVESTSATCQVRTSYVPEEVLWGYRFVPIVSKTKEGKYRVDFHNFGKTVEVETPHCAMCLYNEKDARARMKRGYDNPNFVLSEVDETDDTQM
How it was run: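 ROMK stably expressed in 208–4 cells; GIRK transiently in 293T, recorded 24 h post-transfection; 25°C, Tyrode (high-K+ 50 mM for GIRK), K-aspartate/KCl pipette with 3 mM MgATP. Steps −150 to 10 mV from −70 mV; currents 60 s after peptide; conductance from I-V slope −140 to −100 mV, Ba2+-resistant current subtracted, normalized to 0 μM TPN.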

Male ICR mice [2] = test: Forced swim test (FST); assay type: in vivo, mouse; conditions: i.c.v., 30 min before test, last 4 min of 6 min
Procedure: as §1
The forced swim test (FST) was performed in accordance with the method reported previously. […] The mouse was allowed to swim for 6 min and its activity was measured. […]

[3] = Chemical stability in mouse serum by HPLC; assay type: in vitro ADME; conditions: 33.0 μM peptide mixed with equal volume of mouse serum, 37°C, 30 min; cation-exchange HPLC (HiTrap-SP), A230 nm
Procedure: For the examination of the chemical stability, the peptide was analyzed with high-performance liquid chromatography (HPLC, JASCO, Tokyo, Japan) using a cation-exchange column (HiTrap-SP, Cytiva). TPN-RQ 33.0 μM, which was mixed with an equal volume of PBS or mouse serum, was analyzed with HPLC immediately after mixing or after incubation at 37°C for 30 min. Peptides were eluted with a gradient of NaCl from 200 to 2,000 mM in 10 mM Tris-HCl (pH 7.4), monitoring A230 nm with a UV detector (JASCO).

With `CC[C@H](C)[C@@H]1NC(=O)[C@H](CCCNC(=N)N)NC(=O)[C@H](CC(N)=O)NC(=O)[C@@H]2CSSC[C@@H](C(=O)NCC(=O)N[C@@H](CCCCN)C(=O)N[C@@H](CCCCN)C(N)=O)NC(=O)[C@H](CCCCN)NC(=O)[C@H](CCCCN)NC(=O)[C@H](Cc3c[nH]c4ccccc34)NC(=O)[C@H](CSSC[C@H](NC(=O)[C@H](CC(C)C)NC(=O)[C@H](C)N)C(=O)N[C@@H](CC(N)=O)C(=O)N2)NC(=O)[C@H](CCC(N)=O)NC(=O)[C@H](CC(C)C)NC(=O)[C@@H]2CCCN2C(=O)[C@H]([C@@H](C)CC)NC(=O)[C@H]([C@@H](C)CC)NC1=O` [Peptide 3, TPN-LQ] (H-ALCNCNRIIIPLQCWKKCGKK-NH2; disulfide 3-14, 5-18; N-terminus and C-terminus assumed) the “number of entries to the open arms in EPM” value (Male ICR mice [1]) was “decreased”, the “time spent in the open arms in EPM” value (Male ICR mice [1]) was “decreased” and the inhibition at 1 µM (rat ROMK; whole-cell conductance) was 60 to 80%. The “immobile time in FST” value (Male ICR mice [2]) was “decreased the immobile time”.
With `CC[C@H](C)[C@@H]1NC(=O)[C@H](CCCNC(=N)N)NC(=O)[C@H](CCCNC(=N)N)NC(=O)[C@H](CC(N)=O)NC(=O)[C@@H]2CSSC[C@@H](C(=O)NCC(=O)N[C@@H](CCCCN)C(=O)N[C@@H](CCCCN)C(N)=O)NC(=O)[C@H](CCCCN)NC(=O)[C@H](CCCCN)NC(=O)[C@H](Cc3c[nH]c4ccccc34)NC(=O)[C@H](CSSC[C@H](NC(=O)[C@H](CC(C)C)NC(=O)[C@H](C)N)C(=O)N[C@@H](CC(N)=O)C(=O)N2)NC(=O)[C@H](CCC(N)=O)NC(=O)[C@H](Cc2c[nH]cn2)NC(=O)[C@@H]2CCCN2C(=O)[C@H]([C@@H](C)CC)NC1=O` [Peptide 2, TPN-RQ] (H-ALCNCNRRIIPHQCWKKCGKK-NH2; disulfide 3-14, 5-18) the inhibition at 1 µM (rat ROMK; whole-cell conductance) was over 80%, the IC50 (rat ROMK; peptide pre-treated with protein disulfide isomerase, 30 min, n = 4 (Fig 2F), read-out: IC50, ROMK current, PDI-treated peptide) was 240 nM and the IC50 (rat ROMK; whole-cell conductance, 60 sec after application, n = 3 (Fig 2E), read-out: IC50, ROMK current) was 170 nM. For the same compound, the “chemical stability in mouse serum (HPLC peak height and retention time)” value [3] was “No changes in the peak height or retention time”.
